Positions of bridges follow the written chain, without caps; N, C: chain ends. Non-standard residues stand in square brackets, D forms with d. No end group written: not given here. pGlu = O=C1CC[C@@H](C(=O)O)N1
Assays:
conscious rabbits = assay: Blood pressure and heart rate in conscious rabbits, intravenous infusion dose-response (Example 8)
[1] = test system: denuded aortic rings, GC A receptor; assay: Relaxation of noradrenaline constricted endothelium-denuded aortic rings (Example 11); design: species or system rat; conditions: GC-A mediated
Procedure: Male Sprague Dawley rats were killed and the descending thoracic aorta rapidly removed and flushed with physiological solution. After being cleared of adhering fat and connective tissue, 5 mm rings were mounted under 10 g resting tension, between two stainless steel hooks, in organ baths (37° C.) containing carbogenated (95% O2 and 5% CO2) physiological salt solution of the following composition (mM): NaCl, 118.4; NaHCO3, 25; glucose, 11; KCl, 4.7; MgSO4, 1.2; KH2PO4, 1.2 and CaCl2, 2.5. The lower hook was attached to a tissue holder and the upper hook to a force displacement transducer (Grass FTO3). Where indicated endothelial cells were removed by gentle rubbing of the intimal surface with a wire. To confirm the presence or absence of endothelial cells, tissues were precontracted with a sub-maximal concentration of phenylephrine (0.3 μM) and the response to acetylcholine (ACh, 10 μM) observed. Ach-induced relaxation greater than 80% of maximum indicated the presence of endothelium; whereas Ach-induced relaxation less than 10% indicated the absence of endothelium. Ring preparations under resting tension were conditioned by two contraction/relaxation cycles with 40 mM KCl, contracted by a third application of 40 mM KCl and then relaxed with different doses of the venom peptides. Responses were expressed as a percentage relaxation of the precontraction by KCl.
In addition to the peptides tested in example 3, a series of 13 analogs corresponding to the 2a, 2b and 2c grouping of peptides were examined for their ability to dilate noradrenaline constricted aortic rings. The degree of constriction was expressed as a percentage of the KCl induced constriction. The aortic rings were prepared in a manner similar to the method described in example 3. […]. In each case there were at least 3 separate aortic rings tested per peptide and all were denuded of endothelium to ensure responses were confined to the GC A receptor.

[2] = test system: rats with chronic heart failure; assay: Rat model of chronic heart failure, left coronary artery occlusion, anesthetized (Example 10); conditions: HF rats
normal rats = assay: Hemodynamic parameters in normal anesthetized rats (Example 10)
Plasmin = target: T1, Plasmin (Homo sapiens, UniProt P00747); assay: Stability to enzymatic degradation by plasmin (Examples 7, 16); assay type: in vitro ADME; conditions: plasmin, 37° C.
T1 construct: with 500 ng Endopeptidase (NEP) or 10 μg Plasmin
Procedure: The incubation buffer contained 100 mM Tris/HCl and 150 mM NaCl and the pH was adjusted to 7.2-7.4. In each assay, 100 μl of peptide [500 μM] was incubated with 300 μl buffer (with 500 ng Endopeptidase (NEP) or 10 μg Plasmin) at 37° C. 50 μl aliquots were taken at times 5 min, 30 min, 60 min, 90 min, 180 min and 24 h. The reaction was quenched by heating to 100° C. for 4 min and the remaining peptide concentrations measured by RP-HPLC. Note that the levels of Plasmin required to degrade these peptides was several thousands time the levels present in human plasma.
The stability of TDT and was investigated using the same enzymatic degradation assays (NEP, plasmin, pepsin) disclosed in Example 7. […] It is also evident that the increased NEP stability cannot be explained by the length of the tail region alone as the NEP cleavage site residues at the N-terminal end of the loop region.

[3] = target: T2, Natriuretic Peptide Receptor-A (NPR-A) signaling in MDCK cells (Canis lupus familiaris, UniProt A0A8I3MHU3); assay type: cell-based, canine; conditions: stimulation of cGMP accumulation in MDCK cells
T2 sequence (A0A8I3MHU3 32-1060): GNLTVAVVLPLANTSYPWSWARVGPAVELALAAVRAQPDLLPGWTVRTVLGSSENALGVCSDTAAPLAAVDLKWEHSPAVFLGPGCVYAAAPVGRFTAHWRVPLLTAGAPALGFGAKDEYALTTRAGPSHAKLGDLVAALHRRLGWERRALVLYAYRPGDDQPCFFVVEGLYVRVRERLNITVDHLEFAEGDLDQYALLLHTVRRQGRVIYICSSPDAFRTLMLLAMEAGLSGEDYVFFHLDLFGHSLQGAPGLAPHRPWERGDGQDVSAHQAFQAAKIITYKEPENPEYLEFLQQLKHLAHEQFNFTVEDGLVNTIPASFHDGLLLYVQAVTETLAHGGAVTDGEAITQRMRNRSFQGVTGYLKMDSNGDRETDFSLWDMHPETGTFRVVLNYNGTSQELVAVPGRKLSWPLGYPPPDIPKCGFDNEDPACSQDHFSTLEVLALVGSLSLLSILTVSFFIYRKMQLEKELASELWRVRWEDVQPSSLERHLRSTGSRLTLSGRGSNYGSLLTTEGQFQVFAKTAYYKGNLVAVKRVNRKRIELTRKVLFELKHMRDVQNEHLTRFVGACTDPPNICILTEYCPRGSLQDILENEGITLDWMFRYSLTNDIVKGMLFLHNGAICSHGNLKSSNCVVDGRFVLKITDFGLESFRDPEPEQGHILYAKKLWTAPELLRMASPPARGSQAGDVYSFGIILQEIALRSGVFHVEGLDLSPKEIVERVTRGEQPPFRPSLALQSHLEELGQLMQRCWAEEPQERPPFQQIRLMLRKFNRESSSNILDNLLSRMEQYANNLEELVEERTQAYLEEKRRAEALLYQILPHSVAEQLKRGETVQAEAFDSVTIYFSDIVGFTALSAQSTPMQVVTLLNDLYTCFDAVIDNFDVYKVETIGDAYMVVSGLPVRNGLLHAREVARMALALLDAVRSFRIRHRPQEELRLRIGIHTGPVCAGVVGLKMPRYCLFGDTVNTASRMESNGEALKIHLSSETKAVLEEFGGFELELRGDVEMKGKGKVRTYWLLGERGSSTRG

[4] = after 1 hour recovery period, Table 10A
[5] = after a 2 hour recovery period, Table 10B

T1 sequence (P00747 97-580 partner limits assumed, species assumed): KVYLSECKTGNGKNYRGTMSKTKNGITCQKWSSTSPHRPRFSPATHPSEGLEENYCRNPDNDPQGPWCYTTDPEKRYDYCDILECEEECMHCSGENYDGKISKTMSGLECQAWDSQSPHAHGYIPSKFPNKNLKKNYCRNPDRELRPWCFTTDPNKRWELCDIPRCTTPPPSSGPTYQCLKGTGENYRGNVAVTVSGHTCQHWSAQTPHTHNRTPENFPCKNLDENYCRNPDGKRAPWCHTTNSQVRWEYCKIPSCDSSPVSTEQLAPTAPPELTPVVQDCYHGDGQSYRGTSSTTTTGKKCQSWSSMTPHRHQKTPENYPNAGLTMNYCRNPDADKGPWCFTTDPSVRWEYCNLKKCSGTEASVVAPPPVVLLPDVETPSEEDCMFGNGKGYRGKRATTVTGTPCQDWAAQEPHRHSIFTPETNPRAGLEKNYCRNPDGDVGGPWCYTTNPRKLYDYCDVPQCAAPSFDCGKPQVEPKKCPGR
T1 sequence (P00747 581-810 limits assumed, species assumed): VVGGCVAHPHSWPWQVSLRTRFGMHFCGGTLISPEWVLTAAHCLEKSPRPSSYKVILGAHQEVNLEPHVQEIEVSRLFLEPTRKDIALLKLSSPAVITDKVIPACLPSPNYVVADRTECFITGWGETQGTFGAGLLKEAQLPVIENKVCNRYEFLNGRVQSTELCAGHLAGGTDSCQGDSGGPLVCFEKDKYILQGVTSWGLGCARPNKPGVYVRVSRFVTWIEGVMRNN

## SDSKIGNGCFGFPLDRIGSVSGLGCNRIMQNRPKKFSGE (A portion of a natriuretic peptide) [TNPc P32R]
Conscious rabbits; [4]
  Recovery (MAP): 57.6 mm Hg
  Recovery Delta SED (MAP): 0.1 ± 1.4 mm Hg
Conscious rabbits; highest dose, Table 10A
  MAP at final dose: 57.5 mm Hg
Conscious rabbits; highest dose, Table 10A, groups 1, 2A and 3
  Treatment Effect, change of mean blood pressure during the infusion: −19.9 mm Hg
Conscious rabbits; one hour after the end of infusion
  recovery of MAP from the hypotension, in words: did recover from the hypotension
[1]
  Mean relaxation SEM of denuded aortic rings expressed as % of KCl response: 66.4 ± 8.8%

## ZSDSKIGNGCFGFPLDRIGSVSGLGCNRIMQNPPKKFSGE ([pGlu]SDSKIGNGCFGFPLDRIGSVSGLGCNRIMQNPPKKFSGE; disulfide 10-26 (inferred); not fully specified; ends not checked) [TNPc Z0]
Conscious rabbits; 2 hours after infusion
  recovery of MAP, in words: partially recovered
Conscious rabbits; Table 10B
  MAP at final dose: 63.3 mm Hg
Conscious rabbits; [5]
  Recovery (MAP): 72.2 mm Hg
  Recovery Delta SED (MAP): 9.0 ± 1.0 mm Hg
Conscious rabbits; final dose, Table 10B, groups 2B and 2C
  Treatment Effect, change of mean blood pressure during the infusion: −11.0 mm Hg
[1]
  Mean relaxation SEM of denuded aortic rings expressed as % of KCl response: 61.5 ± 5.5%

## CC[C@H](C)[C@@H]1NC(=O)[C@H](CCCNC(=N)N)NC(=O)[C@H](CC(=O)O)NC(=O)[C@H](CCSC)NC(=O)[C@H](CCCCN)NC(=O)[C@H](CCCNC(=N)N)NC(=O)CNC(=O)[C@H](Cc2ccccc2)NC(=O)[C@@H](NC(=O)CNC(=O)[C@H](CO)NC(=O)CNC(=O)[C@H](CCC(N)=O)NC(=O)[C@@H](NC(=O)[C@H](CCSC)NC(=O)[C@H](CCCCN)NC(=O)[C@@H]2CCCN2C(=O)[C@@H](N)CO)C(C)C)CSSC[C@@H](C(=O)N[C@@H](CCCCN)C(=O)N[C@H](C(=O)N[C@@H](CC(C)C)C(=O)N[C@@H](CCCNC(=N)N)C(=O)N[C@@H](CCCNC(=N)N)C(=O)N[C@@H](Cc2c[nH]cn2)C(=O)O)C(C)C)NC(=O)CNC(=O)[C@H](CC(C)C)NC(=O)CNC(=O)[C@H](CO)NC(=O)[C@H](CO)NC(=O)[C@H](CO)NC(=O)[C@H](CO)NC1=O [hBNP]
[2]; 50 pmol/kg/min, 30 min
  Blood Flow, mean change from control: -1.6 mL/min
  Conductance, mean change from control: −0.3 ml/min/mmHg
  Diastolic LVP, mean change from control: −0.7 mmHg
  HCT, mean change from control: 1.9%
  HR, mean change from control: −12.3 bpm
  Mean BP, mean change from control: −9.6 mmHg
  Urine Flow, mean change from control: 0.8 mL/h
[2]; 100 pmol/kg/min, 30 min
  Blood Flow, mean change from control: -2.9 mL/min
  Conductance, mean change from control: 0.2 ml/min/mmHg
  Diastolic LVP, mean change from control: −1.2 mmHg
  HCT, mean change from control: 0.3%
  HR, mean change from control: −40.5 bpm
  Mean BP, mean change from control: −26.5 mmHg
  Urine Flow, mean change from control: 0.7 mL/h
[2]; Recovery
  Blood Flow, mean change from control: -1.0 mL/min
  Conductance, mean change from control: 0.5 ml/min/mmHg
  Diastolic LVP, mean change from control: 1.9 mmHg
  HCT, mean change from control: −1.3%
  HR, mean change from control: −41.7 bpm
  Mean BP, mean change from control: −14.6 mmHg
  Urine Flow, mean change from control: -0.2 mL/h
[2]; average of the two doses
  Blood Flow, Average drug response SED: -2.2 ± 0.4 mL/min
  Conductance, Average drug response SED: −0.1 ± 0.3 ml/min/mmHg
  Diastolic LVP, Average drug response SED: −1.0±1.0 mmHg
  HCT, Average drug response SED: 1.1 ± 0.8%
  HR, Average drug response SED: −26.4 ± 23.0 bpm
  Mean BP, Average drug response SED: −18.1±6.3 mmHg
  Urine Flow, Average drug response SED: 0.7 ± 0.3 mL/h
Conscious rabbits; bolus injection of 0.24 mg/kg TNPc or equivalent molar dose of BNP
  time taken to recover to 50% of the peak response: 80 min
Normal rats; 50 pmol/kg/min, 30 min
  Blood Flow, mean change from control: -1.9 mL/min
  Conductance, mean change from control: −1.1 ml/min/mmHg
  Diastolic LVP, mean change from control: −0.1 mmHg
  HCT, mean change from control: 1.0%
  HR, mean change from control: −16.6 BPM
  Mean BP, mean change from control: −6.4 mmHg
  Urine Flow, mean change from control: 0.2 mL/h
Normal rats; 100 pmol/kg/min, 30 min
  Blood Flow, mean change from control: -2.6 mL/min
  Conductance, mean change from control: −1.2 ml/min/mmHg
  Diastolic LVP, mean change from control: 0.1 mmHg
  HCT, mean change from control: 3.5%
  HR, mean change from control: −5.3 BPM
  Mean BP, mean change from control: −14.9 mmHg
  Urine Flow, mean change from control: 0.7 mL/h
Normal rats; Recovery
  Blood Flow, mean change from control: -3.6 mL/min
  Conductance, mean change from control: −1.3 ml/min/mmHg
  Diastolic LVP, mean change from control: −0.2 mmHg
  HCT, mean change from control: −0.3%
  HR, mean change from control: 1.3 BPM
  Mean BP, mean change from control: −14.1 mmHg
  Urine Flow, mean change from control: 0.6 mL/h
Normal rats; average of the two doses
  Blood Flow, Average drug response SED: -2.2 ± 1.0 mL/min
  Conductance, Average drug response SED: −1.1 ± 0.4 ml/min/mmHg
  Diastolic LVP, Average drug response SED: 0.0 ± 0.3 mmHg
  HCT, Average drug response SED: 2.2 ± 0.6%
  HR, Average drug response SED: −10.9 ± 7.1 BPM
  Mean BP, Average drug response SED: −10.7 ± 4.7 mmHg
  Urine Flow, Average drug response SED: 0.5 ± 0.4 mL/h
Plasmin; plasmin in Tris/HCl-NaCl buffer, read-out: HalfLife in plasmin
  half-life at 125 μM: 13.1 min
Plasmin
  K (one phase exponential decay, best fit values): 0.053
  PLATEAU (one phase exponential decay, best fit values): 0.03403
  SPAN (one phase exponential decay, best fit values): 0.9926
[3]
  −Log10 EC50 (pEC50) ± Standard Error: 9.165 ± 0.1039
[3]; read-out: EC50 (M) ± Standard Error
  EC50: 9.07e-10 M

Reference: US8058242B2, “Chimeric proteins with natriuretic activity” (The University of Queensland, priority 2004, dated 2011)
